Test results: US11331299B2, “Medicinal use of serrulatane diterpenes” (The University of Sydney, priority 2016, dated 2022)
Read-outs that look alike come from different tables or passages of the source.

System: 280 human cancer cell lines
Assay: OncoPanel cell proliferation assay (10-day)
Format: cell-based
Conditions: for EC50: read-out: Cell Count EC50; for IC50: read-out: Cell Count IC50
[1] = Homo sapiens, 22Rv1, 22Rv1, Prostate
[2] = Homo sapiens, 786-0, 786-O, Kidney
[3] = Homo sapiens, A7, Skin (Melanoma)
[4] = Homo sapiens, A101D, Skin (Melanoma)
[5] = Homo sapiens, A 172, A172, CNS - Glioma
[6] = Homo sapiens, A253, A-253, Head and Neck
[7] = Homo sapiens, A388, Head and Neck
[8] = Homo sapiens, A498, A498, Kidney
[9] = Homo sapiens, A673, A-673, Soft Tissue - Sarcoma
[10] = Homo sapiens, A704, A-704, Kidney
[11] = Homo sapiens, A-375, A375, Skin (Melanoma)
[12] = Homo sapiens, A-427, A427, Lung - NSCLC
[13] = Homo sapiens, A-431, A431, Head and Neck
[14] = Homo sapiens, AN3-CA, AN3 CA, Female GU - Uterus
[15] = Homo sapiens, ARH-77, ARH-77, Myeloma
[16] = Homo sapiens, ASPC1, AsPC-1, Pancreas
[17] = Homo sapiens, AU565, AU565, Breast
[18] = Homo sapiens, BCP-1, BCP-1, Lymphoma
[19] = Homo sapiens, BE(2)-C, BE(2)C, CNS - Neuroblastoma
[20] = Homo sapiens, BFTC-905, BFTC-905, Bladder
[21] = Homo sapiens, BHT-101, BHT-101, Endocrine - Thyroid
[22] = Homo sapiens, BM-1604, BM-1604, Prostate
[23] = Homo sapiens, BPH-1, BPH1, Prostate
[24] = Homo sapiens, BT-20, BT20, Breast

CC(C)=CCC[C@@H]1C(O)Oc2c(C)cc(O)c3c2[C@H]1CC[C@H]3C (stereo partly shown) [Compound 2, 5,18-epoxyserrulat-14-en-8,18-diol] was tested, and the “Number of cell types, GI Activity Potent” value (GI50 range 0.03-0.099 μM, of 280 cell types) was 1, the “Number of cell types, GI Activity moderately potent” value (GI50 range 0.1-0.99 μM, of 280 cell types) was 1 and the “Number of cell types, GI Activity Strong” value (GI50 range 1-2.99 μM, of 280 cell types) was 8. The “Number of cell types, GI Activity moderately strong” value (GI50 range 3-9.99 μM, of 280 cell types) was 110, the “Number of cell types, GI Activity weak” value (GI50 range 10-30.00 μM, of 280 cell types) was 118 and the “Number of cell types, GI Activity very weak” value (GI50 range >30 μM, of 280 cell types) was 42. It also gave a GI50 (Homo sapiens, 10 cell lines with potent to strong activity, read-out: GI50) of 0.06 to 2.96 µM, an EC50 [1] of 11.4 µM and a GI50 (Homo sapiens, 22Rv1, 22Rv1, Prostate, read-out: Cell Count GI50) of 11.3 µM. The IC50 [1] was 11.4 µM, the EC50 (Homo sapiens, 647-V, Bladder) was 11.3 µM and the GI50 (Homo sapiens, 647-V, Bladder, read-out: Cell Count GI50) was 11.2 µM. For the same compound, the IC50 (Homo sapiens, 647-V, Bladder) was 11.3 µM, the EC50 (Homo sapiens, 769-P, Kidney) was 6.95 µM and the GI50 (Homo sapiens, 769-P, Kidney, read-out: Cell Count GI50) was 6.94 µM. For the same compound, the IC50 (Homo sapiens, 769-P, Kidney) was 6.95 µM, the EC50 [2] was 27.9 µM and the GI50 (Homo sapiens, 786-0, 786-O, Kidney, read-out: Cell Count GI50) was 27.9 µM. The IC50 [2] was 27.9 µM, the EC50 (Homo sapiens, 5637, Bladder) was greater than 30 µM and the GI50 (Homo sapiens, 5637, Bladder, read-out: Cell Count GI50) was greater than 30 µM. It also gave an IC50 (Homo sapiens, 5637, Bladder) greater than 30 µM, an EC50 [3] of 5.54 µM and a GI50 (Homo sapiens, A7, Skin (Melanoma), read-out: Cell Count GI50) of 5.6 µM. For the same compound, the IC50 [3] was 5.63 µM, the EC50 [4] was greater than 30 µM and the GI50 (Homo sapiens, A101D, Skin (Melanoma), read-out: Cell Count GI50) was greater than 30 µM. For the same compound, the IC50 [4] was greater than 30 µM, the EC50 [5] was 9.02 µM and the GI50 (Homo sapiens, A 172, A172, CNS - Glioma, read-out: Cell Count GI50) was 8.93 µM. It also gave an IC50 [5] of 9.02 µM, an EC50 [6] of 28.5 µM and a GI50 (Homo sapiens, A253, A-253, Head and Neck, read-out: Cell Count GI50) of 28.7 µM. The IC50 [6] was 28.7 µM, the EC50 [7] was 13.5 µM and the GI50 (Homo sapiens, A388, Head and Neck, read-out: Cell Count GI50) was 13.4 µM. It also gave an IC50 [7] of 13.5 µM, an EC50 [8] of 13.3 µM and a GI50 (Homo sapiens, A498, A498, Kidney, read-out: Cell Count GI50) of 13.2 µM. The IC50 [8] was 13.3 µM, the EC50 (Homo sapiens, A549, A549, Lung - NSCLC) was 22 µM and the GI50 (Homo sapiens, A549, A549, Lung - NSCLC, read-out: Cell Count GI50) was 21.9 µM. It also gave an EC50 [9] of 10.8 µM, a GI50 (Homo sapiens, A673, A-673, Soft Tissue - Sarcoma, read-out: Cell Count GI50) of 11.1 µM and an IC50 [9] of 11.1 µM. For the same compound, the EC50 [10] was greater than 30 µM, the GI50 (Homo sapiens, A704, A-704, Kidney, read-out: Cell Count GI50) was greater than 30 µM and the IC50 [10] was greater than 30 µM. It also gave an EC50 [11] of 6.45 µM, a GI50 (Homo sapiens, A-375, A375, Skin (Melanoma), read-out: Cell Count GI50) of 6.44 µM and an IC50 [11] of 6.45 µM. It also gave an EC50 [12] of 11.2 µM, a GI50 (Homo sapiens, A-427, A427, Lung - NSCLC, read-out: Cell Count GI50) of 11.2 µM and an IC50 [12] of 11.2 µM. The EC50 [13] was greater than 30 µM, the GI50 (Homo sapiens, A-431, A431, Head and Neck, read-out: Cell Count GI50) was greater than 30 µM and the IC50 [13] was greater than 30 µM. For the same compound, the EC50 (Homo sapiens, ACHN, Kidney) was 8.79 µM, the GI50 (Homo sapiens, ACHN, Kidney, read-out: Cell Count GI50) was 8.76 µM and the IC50 (Homo sapiens, ACHN, Kidney) was 8.79 µM. The EC50 (Homo sapiens, AGS, Stomach) was 4.69 µM, the GI50 (Homo sapiens, AGS, Stomach, read-out: Cell Count GI50) was 4.69 µM and the IC50 (Homo sapiens, AGS, Stomach) was 4.69 µM. For the same compound, the EC50 [14] was 11.3 µM, the GI50 (Homo sapiens, AN3-CA, AN3 CA, Female GU - Uterus, read-out: Cell Count GI50) was 11.1 µM and the IC50 [14] was 11.3 µM. For the same compound, the EC50 [15] was 9.5 µM, the GI50 (Homo sapiens, ARH-77, ARH-77, Myeloma, read-out: Cell Count GI50) was 9.57 µM and the IC50 [15] was 9.6 µM. It also gave an EC50 [16] of 14.1 µM, a GI50 (Homo sapiens, ASPC1, AsPC-1, Pancreas, read-out: Cell Count GI50) of 13.8 µM and an IC50 [16] of 14.1 µM. The EC50 [17] was 6.4 µM, the GI50 (Homo sapiens, AU565, AU565, Breast, read-out: Cell Count GI50) was 6.29 µM and the IC50 [17] was 6.4 µM. It also gave an EC50 (Homo sapiens, BC-1, Lymphoma) of 7.95 µM, a GI50 (Homo sapiens, BC-1, Lymphoma, read-out: Cell Count GI50) of 7.93 µM and an IC50 (Homo sapiens, BC-1, Lymphoma) of 7.95 µM. The EC50 [18] was 8.48 µM, the GI50 (Homo sapiens, BCP-1, BCP-1, Lymphoma, read-out: Cell Count GI50) was 8.4 µM and the IC50 [18] was 8.48 µM. For the same compound, the EC50 [19] was 6.91 µM, the GI50 (Homo sapiens, BE(2)-C, BE(2)C, CNS - Neuroblastoma, read-out: Cell Count GI50) was 7.48 µM and the IC50 [19] was 7.52 µM. It also gave an EC50 [20] of 8.03 µM, a GI50 (Homo sapiens, BFTC-905, BFTC-905, Bladder, read-out: Cell Count GI50) of 8.01 µM and an IC50 [20] of 8.03 µM. The EC50 [21] was 14 µM, the GI50 (Homo sapiens, BHT-101, BHT-101, Endocrine - Thyroid, read-out: Cell Count GI50) was 13.9 µM and the IC50 [21] was 14 µM. The EC50 [22] was 19.1 µM, the GI50 (Homo sapiens, BM-1604, BM-1604, Prostate, read-out: Cell Count GI50) was 18.9 µM and the IC50 [22] was 19.1 µM. It also gave an EC50 [23] greater than 30 µM, a GI50 (Homo sapiens, BPH-1, BPH1, Prostate, read-out: Cell Count GI50) greater than 30 µM and an IC50 [23] greater than 30 µM. It also gave an EC50 [24] of 12.2 µM, a GI50 (Homo sapiens, BT-20, BT20, Breast, read-out: Cell Count GI50) of 12.3 µM and an IC50 [24] of 12.7 µM. The EC50 (Homo sapiens, BT-474, BT474, Breast) was greater than 30 µM.
